Tests used:
[1] = target: hGYS2 enzyme (recombinant hGYS2/GN1 protein) (Homo sapiens (Human), UniProt P54840); experiment: GYS2 coupled enzyme assay (PK/LDH); format: biochemical; conditions: geometric mean of at least 2 assay runs on separate days, read-out: Avg_IC50
Method in brief: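 Continuous PK/LDH-coupled readout of NADH loss at 340 nm over 10 min, with 200 nM hGYS2/GN1 and 2 mM each of UDP-glucose, glucose-6-phosphate and PEP, in 50 mM Tris pH 7.5 with 0.2% glycogen and 2.5% DMSO. Slopes were normalized to controls and IC50s fit to a Hill curve from duplicates.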

[2] = tested on: hGYS1 enzyme / glycogen synthesis in HeLa cells; experiment: GYS1 cell based assay (glycogen synthesis, Glucose-glo); parameters: species or system human; conditions: Homo sapiens, HeLa, 24 h, 24 h incubation, 20 mM glucose, geometric mean of at least 2 runs
Method in brief: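 HeLa cells starved 24 h in medium containing only 1× Glutamax were plated onto compound in medium with 20 mM glucose (1% DMSO final) for 24 h, 37 °C, 5% CO2. Acid lysates were Tris-quenched, glucoamylase-digested (pH 5.3, 1 h, 37 °C) and read by Glucose-glo luminescence. IC50 came from Hill fits, as geometric mean of ≥2 runs.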

[3] = target: hGYS1 enzyme (recombinant hGYS1/GN1 protein) (Homo sapiens (Human), UniProt P13807); experiment: GYS1 coupled enzyme assay (PK/LDH); format: biochemical; conditions: hGYS1/GN1 50 nM, UDP-Glucose 0.8 mM, G6P 1 mM; geometric mean of at least 2 runs
Sequence of hGYS1 enzyme (recombinant hGYS1/GN1 protein) (P13807 whole entry): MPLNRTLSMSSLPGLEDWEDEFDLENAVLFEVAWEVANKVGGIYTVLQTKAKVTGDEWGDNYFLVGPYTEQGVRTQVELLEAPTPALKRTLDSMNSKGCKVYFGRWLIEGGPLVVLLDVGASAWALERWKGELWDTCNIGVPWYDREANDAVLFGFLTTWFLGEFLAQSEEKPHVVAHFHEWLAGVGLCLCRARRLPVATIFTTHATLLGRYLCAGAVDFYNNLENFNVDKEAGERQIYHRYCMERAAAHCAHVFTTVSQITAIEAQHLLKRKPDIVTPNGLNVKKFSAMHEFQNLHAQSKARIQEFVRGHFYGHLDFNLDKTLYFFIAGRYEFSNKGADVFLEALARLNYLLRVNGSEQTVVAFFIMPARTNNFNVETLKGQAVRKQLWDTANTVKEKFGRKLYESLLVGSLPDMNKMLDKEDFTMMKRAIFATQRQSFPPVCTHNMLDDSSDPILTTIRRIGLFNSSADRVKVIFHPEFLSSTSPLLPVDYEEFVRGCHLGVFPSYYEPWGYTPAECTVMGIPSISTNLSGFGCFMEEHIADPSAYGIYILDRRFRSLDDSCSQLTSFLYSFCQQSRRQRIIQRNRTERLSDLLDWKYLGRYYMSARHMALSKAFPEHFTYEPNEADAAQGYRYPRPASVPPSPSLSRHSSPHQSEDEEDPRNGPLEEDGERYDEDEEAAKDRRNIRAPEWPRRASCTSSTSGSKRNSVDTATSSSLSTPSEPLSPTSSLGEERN
Sequence of hGYS1 enzyme (recombinant hGYS1/GN1 protein) (P46976 whole entry partner): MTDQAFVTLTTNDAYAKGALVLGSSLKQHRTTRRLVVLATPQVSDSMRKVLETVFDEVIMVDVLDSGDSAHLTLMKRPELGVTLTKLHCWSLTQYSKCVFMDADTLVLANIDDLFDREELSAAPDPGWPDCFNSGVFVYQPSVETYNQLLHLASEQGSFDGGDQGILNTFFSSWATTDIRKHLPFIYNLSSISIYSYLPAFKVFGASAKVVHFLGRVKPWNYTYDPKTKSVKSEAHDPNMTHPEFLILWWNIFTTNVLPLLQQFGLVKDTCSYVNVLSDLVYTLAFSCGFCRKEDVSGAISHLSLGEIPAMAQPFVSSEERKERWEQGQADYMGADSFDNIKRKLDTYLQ

Sequence of hGYS2 enzyme (recombinant hGYS2/GN1 protein) (P54840 whole entry): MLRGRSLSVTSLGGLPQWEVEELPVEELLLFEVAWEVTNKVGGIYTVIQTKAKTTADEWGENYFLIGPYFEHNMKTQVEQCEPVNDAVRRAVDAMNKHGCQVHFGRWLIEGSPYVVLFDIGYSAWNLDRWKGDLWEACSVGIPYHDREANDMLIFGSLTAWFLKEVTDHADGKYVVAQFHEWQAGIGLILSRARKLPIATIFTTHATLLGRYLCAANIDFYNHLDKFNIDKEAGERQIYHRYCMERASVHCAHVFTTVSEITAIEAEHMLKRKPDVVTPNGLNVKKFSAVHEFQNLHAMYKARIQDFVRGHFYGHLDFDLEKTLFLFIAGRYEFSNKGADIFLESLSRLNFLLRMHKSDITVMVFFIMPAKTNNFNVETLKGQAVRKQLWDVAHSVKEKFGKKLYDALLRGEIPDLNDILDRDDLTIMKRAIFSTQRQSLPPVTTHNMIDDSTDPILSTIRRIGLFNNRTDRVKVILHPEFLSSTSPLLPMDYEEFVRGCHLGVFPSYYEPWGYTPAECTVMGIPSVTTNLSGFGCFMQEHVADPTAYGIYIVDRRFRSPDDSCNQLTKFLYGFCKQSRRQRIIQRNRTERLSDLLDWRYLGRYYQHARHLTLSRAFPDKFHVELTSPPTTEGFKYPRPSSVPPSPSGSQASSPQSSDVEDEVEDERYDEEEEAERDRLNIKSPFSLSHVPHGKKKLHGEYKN
Sequence of hGYS2 enzyme (recombinant hGYS2/GN1 protein) (P46976 whole entry partner): as the sequence (P46976 whole entry partner) above

| Compound | IC50 [1] | IC50 [2] | IC50 [3] |
| --- | --- | --- | --- |
| CCn1c(=O)ccn(CC(=O)N2C[C@H](F)C[C@H]2C(=O)N[C@@H](c2ccccc2)c2ccc(C3CC3)c(F)n2)c1=O [Compound 735, (2S,4R)-N-[(S)-(5-cyclopropyl-6-fluoropyridin-2-yl)(phenyl)methyl]-1-[2-(3-ethyl-2,4-dioxo-1,2,3,4-tetrahydropyrimidin-1 yl)acetyl]-4-fluoropyrrolidine-2-carboxamide] | > 100 µM | 0.27 µM | 0.005 µM |
| CC(C)c1ccc([C@@H](NC(=O)[C@@H]2C[C@@H](F)CN2C(=O)Cc2cnn(C)c2)c2ccccc2)cc1F [Compound 355, (2S,4R)-4-fluoro-N-[(S)-[3-fluoro-4-(propan-2-yl)phenyl](phenyl)methyl]-1-[2-(1-methyl-1H-pyrazol-4-yl)acetyl]pyrrolidine-2-carboxamide] | > 100 µM | 0.16 µM | 0.018 µM |
| O=C(N[C@@H](c1ccccc1)c1ccc(C2CC(F)(F)C2)c(F)c1)[C@@H]1C[C@@H](F)CN1C(=O)Cc1[nH]nnc1C(F)(F)F [Compound 553, (2S,4R)-N-[(S)-[4-(3,3-difluorocyclobutyl)-3-fluorophenyl](phenyl)methyl]-4-fluoro-1-{2-[4-(trifluoromethyl)-1H-1,2,3-triazol-5-yl]acetyl}pyrrolidine-2-carboxamide] | > 100 µM | 0.4 µM | 0.008 µM |
| Cc1ccnn1CC(=O)N1C[C@H](F)C[C@H]1C(=O)N[C@@H](c1ccccc1)c1ccc(C2CC2)c(F)n1 [Compound 724, (2S,4R)-N-[(S)-(5-cyclopropyl-6-fluoropyridin-2-yl)(phenyl)methyl]-4-fluoro-1-[2-(5-methyl-1H-pyrazol-1-yl)acetyl]pyrrolidine-2-carboxamide] | > 100 µM | 0.63 µM | 0.034 µM |
| Cc1cn(CC(=O)N2C[C@H](F)C[C@H]2C(=O)N[C@@H](c2ccccc2)c2ccc(C(C)C)cn2)c(=O)[nH]c1=O [Compound 249, (2S,4R)-4-fluoro-1-[2-(5-methyl-2,4-dioxo-1,2,3,4-tetrahydropyrimidin-1-yl)acetyl]-N-[(S)-phenyl[5-(propan-2-yl)pyridin-2-yl]methyl]pyrrolidine-2-carboxamide] | > 100 µM | 1.15 µM | 0.021 µM |
| CCn1ncc(NCC(=O)N2C[C@H](F)C[C@H]2C(=O)N[C@@H](c2ccccc2)c2ccc(C3CC3)c(F)c2)n1 [Compound 470, (2S,4R)-N-[(S)-(4-cyclopropyl-3-fluorophenyl)(phenyl)methyl]-1-{2-[(2-ethyl-2H-1,2,3-triazol-4-yl)amino]acetyl}-4-fluoropyrrolidine-2-carboxamide] | > 100 µM | 0.96 µM | 0.082 µM |
| CC(C)c1ccc([C@@H](NC(=O)[C@@H]2C[C@@H](F)CN2C(=O)Cn2ccc(C(F)(F)F)n2)c2ccccc2)nc1F [Compound 790, (2S,4R)-4-fluoro-N-[(S)-[6-fluoro-5-(propan-2-yl)pyridin-2-yl](phenyl)methyl]-1-{2-[3-(trifluoromethyl)-1H-pyrazol-1-yl]acetyl} pyrrolidine-2-carboxamide] | > 100 µM | 0.25 µM | 0.008 µM |
| CC(C)c1ccc([C@@H](NC(=O)[C@@H]2C[C@@H](F)CN2C(=O)Cn2cc(C(F)(F)F)nn2)c2ccccc2)cc1F [Compound 372, (2S,4R)-4-fluoro-N-[(S)-[3-fluoro-4-(propan-2-yl)phenyl](phenyl)methyl]-1-{2-[4-(trifluoromethyl)-1H-1,2,3-triazol-1-yl]acetyl}pyrrolidine-2-carboxamide] | > 100 µM | 1.1 µM | 0.036 µM |
| CC(C)c1ccc([C@@H](NC(=O)[C@@H]2C[C@@H](F)CN2C(=O)Cn2ccnc2)c2ccccc2)cc1F [Compound 380, (2S,4R)-4-fluoro-N-[(S)-[3-fluoro-4-(propan-2-yl)phenyl](phenyl)methyl]-1-[2-(1H-imidazol-1-yl)acetyl]pyrrolidine-2-carboxamide] | > 100 µM | 0.45 µM | 0.047 µM |
| CC(C)c1ccc([C@@H](NC(=O)[C@@H]2C[C@@H](F)CN2C(=O)Cc2ccno2)c2ccccc2)cc1F [Compound 338, (2S,4R)-4-fluoro-N-[(S)-[3-fluoro-4-(propan-2-yl)phenyl](phenyl)methyl]-1-[2-(1,2-oxazol-5-yl)acetyl]pyrrolidine-2-carboxamide] | > 100 µM | 0.39 µM | 0.034 µM |
| Cn1c(CC(=O)N2C[C@H](F)C[C@H]2C(=O)N[C@@H](c2ccccc2)c2ccc(C3CC3)c(F)c2)cc2ccccc21 [Compound 462, (2S,4R)-N-[(S)-(4-cyclopropyl-3-fluorophenyl)(phenyl)methyl]-4-fluoro-1-[2-(1-methyl-1H-indol-2-yl)acetyl]pyrrolidine-2-carboxamide] | > 100 µM | 0.64 µM | 0.024 µM |
| Cc1coc(CC(=O)N2C[C@H](F)C[C@H]2C(=O)N[C@@H](c2ccccc2)c2ccc(C3CC3)c(F)n2)n1 [Compound 314, (2S,4R)-N-[(S)-(5-cyclopropyl-6-fluoropyridin-2-yl)(phenyl)methyl]-4-fluoro-1-[2-(4-methyl-1,3-oxazol-2-yl)acetyl]pyrrolidine-2-carboxamide] | > 100 µM | 1.01 µM | 0.063 µM |
| O=C(N[C@@H](c1ccccc1)c1ccc(C2CC2)c(F)c1)[C@@H]1C[C@@H](F)CN1C(=O)CNC(=O)N1CC(F)(F)C1 [Compound 495, (2S,4R)-N-[(S)-(4-cyclopropyl-3-fluorophenyl)(phenyl)methyl]-1-{2-[(3,3-difluoroazetidine-1-carbonyl)amino]acetyl}-4-fluoropyrrolidine-2-carboxamide] | > 100 µM | 1.5 µM | 0.066 µM |
| CC(C)c1ccc([C@@H](NC(=O)[C@@H]2C[C@@H](F)CN2C(=O)Cc2cnn[nH]2)c2cccc(-c3ccn[nH]3)c2)nc1F [Compound 686, (2S,4R)-1-(2-(1H-1,2,3-triazol-5-yl)acetyl)-N—((S)-(3-(1H-pyrazol-5-yl)phenyl)(6-fluoro-5-isopropylpyridin-2-yl)methyl)-4-fluoropyrrolidine-2-carboxamide] | > 100 µM | 0.64 µM | 0.013 µM |
| CC(C)c1ccc([C@@H](NC(=O)[C@@H]2C[C@@H](F)CN2C(=O)Cc2cccc3ncccc23)c2ccccc2)nc1 [Compound 247, (2S,4R)-4-fluoro-N-[(S)-phenyl[5-(propan-2-yl)pyridin-2-yl]methyl]-1-[2-(quinolin-5-yl)acetyl]pyrrolidine-2-carboxamide] | > 100 µM | 0.18 µM | 0.01 µM |
| Cc1cc(CC(=O)N2C[C@H](F)C[C@H]2C(=O)N[C@@H](c2ccccc2)c2ccc(C3CC3)c(F)n2)c[nH]c1=O [Compound 732, (2S,4R)-N-[(S)-(5-cyclopropyl-6-fluoropyridin-2-yl)(phenyl)methyl]-4-fluoro-1-[2-(5-methyl-6-oxo-1,6-dihydropyridin-3-yl)acetyl]pyrrolidine-2-carboxamide] | > 100 µM | 1.37 µM | 0.027 µM |
| O=C(N[C@@H](c1ccccc1)c1ccc(C2CC2)c(F)c1)[C@@H]1C[C@@H](F)CN1C(=O)COC(=O)N1CCN(CC(F)(F)F)CC1 [Compound 446, 2-[(2S,4R)-2-{[(S)-(4-cyclopropyl-3-fluorophenyl)(phenyl)methyl]carbamoyl}-4-fluoropyrrolidin-1-yl]-2-oxoethyl 4-(2,2,2-trifluoroethyl)piperazine-1-carboxylate] | > 100 µM | 2.19 µM | 0.098 µM |
| CC(C)c1ccc([C@@H](NC(=O)[C@@H]2C[C@@H](F)CN2C(=O)Cn2nncc2CN)c2ccccc2)cc1 [Compound 240, (2S,4R)-1-{2-[5-(aminomethyl)-1H-1,2,3-triazol-1-yl]acetyl}-4-fluoro-N-[(S)-phenyl[4-(propan-2-yl)phenyl]methyl]pyrrolidine-2-carboxamide] | > 100 µM | 2.09 µM | 0.06 µM |
| CC(C)c1ccc([C@@H](NC(=O)[C@@H]2C[C@@H](F)CN2C(=O)Cn2cc(C(F)(F)F)cn2)c2ccccc2)nc1F [Compound 788] | > 100 µM | 0.34 µM | 0.02 µM |
| CC(C)c1ccc([C@@H](NC(=O)[C@@H]2C[C@@H](F)CN2C(=O)CNC(=O)N2CCN(CC3CC3)CC2)c2ccccc2)nc1 [Compound 282, 4-(cyclopropylmethyl)-N-{2-[(2S,4R)-4-fluoro-2-{[(S)-phenyl[5-(propan-2-yl)pyridin-2-yl]methyl]carbamoyl}pyrrolidin-1-yl]-2-oxoethyl}piperazine-1-carboxamide] | > 100 µM | 4.18 µM | 0.049 µM |
| CC(C)c1ccc([C@@H](NC(=O)[C@@H]2C[C@@H](F)CN2C(=O)CCc2n[nH]c(=O)[nH]2)c2ccccc2)nc1 [Compound 287, (2S,4R)-4-fluoro-1-[3-(5-oxo-4,5-dihydro-1H-1,2,4-triazol-3-yl)propanoyl]-N-[(S)-phenyl[5-(propan-2-yl)pyridin-2-yl]methyl]pyrrolidine-2-carboxamide] | > 100 µM | 11.8 µM | 0.124 µM |
